According to patent publication US12139492B2 (Endotarget Inc., priority 2021, dated 2024):
Where two headings read alike, the source gives them in different places.

Experiments:
[1] = tested on: JeKo-1 cells; assay: Antiproliferative effect, MTS cell viability assay, JeKo-1 cells; format: cell-based; details: Homo sapiens; JeKo-1 mantle cell lymphoma cells; read-out: IC50 (anti-proliferation) JeKO-1 cells
Summary of the method: (§1)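 Cells were exposed to compound at 0, 0.001, 0.01, 0.1, 1 and 10 μM for 72 h. Viability was then measured by MTS assay, reading formazan produced by metabolically active cells as absorbance at 490 nm.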

[2] = molecular target: BTK (Homo sapiens, UniProt Q06187); assay: Degradation of BTK protein in Namalwa cells (Western blot; DC50, Dmax); details: for DC50: cell line not given
[3] = tested on: Mino cells; assay: Antiproliferative effect, MTS cell viability assay, Mino cells; format: cell-based; details: Homo sapiens, MINO, Mino mantle cell lymphoma cells; read-out: IC50 (anti-proliferation) Mino cells
Summary of the method: as §1

[4] = read-out: DC50 (BTK degradation), concentration giving 50% reduction of BTK expression level
[5] = read-out: Dmax (BTK degradation)

Sequence of BTK (Q06187 whole entry): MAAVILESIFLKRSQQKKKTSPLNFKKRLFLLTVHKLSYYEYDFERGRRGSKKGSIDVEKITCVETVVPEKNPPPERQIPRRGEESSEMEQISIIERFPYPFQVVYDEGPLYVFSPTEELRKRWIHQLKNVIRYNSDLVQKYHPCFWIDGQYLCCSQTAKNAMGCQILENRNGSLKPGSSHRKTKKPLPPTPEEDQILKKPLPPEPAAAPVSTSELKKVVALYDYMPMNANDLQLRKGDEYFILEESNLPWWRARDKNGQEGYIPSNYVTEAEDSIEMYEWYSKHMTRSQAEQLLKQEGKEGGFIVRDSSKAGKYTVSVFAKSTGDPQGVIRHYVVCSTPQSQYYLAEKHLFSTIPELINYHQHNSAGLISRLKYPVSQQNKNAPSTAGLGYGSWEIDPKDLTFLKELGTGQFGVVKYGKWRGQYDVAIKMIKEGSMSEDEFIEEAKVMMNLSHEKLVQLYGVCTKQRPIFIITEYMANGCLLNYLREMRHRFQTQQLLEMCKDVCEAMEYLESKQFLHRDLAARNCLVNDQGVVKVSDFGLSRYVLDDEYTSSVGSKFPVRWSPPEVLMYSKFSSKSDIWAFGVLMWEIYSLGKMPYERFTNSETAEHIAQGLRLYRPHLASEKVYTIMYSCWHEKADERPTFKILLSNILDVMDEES

| SMILES | IC50 [1] [nM] | Dmax [2] [%] | DC50 ([2]; BTK degradation) [nM] | IC50 [3] [nM] | degradation of BTK protein ([2]; Namalwa B lymphocyte cells, various concentrations, 24 hours, Western blot) | DC50 [2, 4] [nM] | Dmax [2, 5] [%] |
| --- | --- | --- | --- | --- | --- | --- | --- |
| Nc1ncnc2c1c(-c1ccc(Oc3ccccc3)cc1)nn2C1CCN(C2CCN(CCN3CCN(c4ccc5c(c4)C(=O)N(C4CCC(=O)NC4=O)C5=O)CC3)CC2)CC1 (stereo not drawn) [Compound 217, 5-(4-(2-(4-(4-amino-3-(4-phenoxyphenyl)-1H-pyrazolo[3,4-d]pyrimidin-1-yl)-[1,4′-bipiperidin]-1′-yl)ethyl)piperazin-1-yl)-2-(2,6-dioxopiperidin-3-yl)isoindoline-1,3-dione] | < 1000 | > 75 | 10 to 50 | 1000 to 10000 |  |  |  |
| Nc1ncnc2c1c(-c1ccc(Oc3ccccc3)cc1)nn2C1CCN(CC2CCN(CCC3CCN(c4ccc5c(c4)CN(C4CCC(=O)NC4=O)C5=O)CC3)CC2)CC1 (stereo not drawn) [Compound 202, 3-(5-(4-(2-(4-((4-(4-amino-3-(4-phenoxyphenyl)-1H-pyrazolo[3,4-d]pyrimidin-1-yl)piperidin-1-yl)methyl)piperidin-1-yl)ethyl)piperidin-1-yl)-1-oxoisoindolin-2-yl)piperidine-2,6-dione] | < 1000 | > 90 | 10 to 50 | 1000 to 10000 |  |  |  |
| Nc1ncnc2c1c(-c1ccc(Oc3ccccc3)cc1)nn2C1CCN(CC2CN(CC3CCN(c4ccc5c(c4)C(=O)N(C4CCC(=O)NC4=O)C5=O)C3)C2)CC1 (stereo not drawn) [Compound 443, 5-(3-((3-((4-(4-amino-3-(4-phenoxyphenyl)-1H-pyrazolo(3,4-d)pyrimidin-1-yl)piperidin-1-yl)methyl)azetidin-1-yl)methyl)pyrrolidin-1-yl)-2-(2,6-dioxopiperidin-3-yl)isoindoline-1,3-dione] | < 1000 |  |  | < 1000 | dose-dependent degradation | < 10 | > 90 |
| NC(=O)c1c(-c2ccc(Oc3ccccc3)cc2)nn2c1NCCC2C1CCN(CC2CCN(C(=O)N3CCC(CN4CCC(c5ccc6c(c5)CN(C5CCC(=O)NC5=O)C6=O)CC4)CC3)CC2)CC1 (stereo not drawn) [Compound 376, 7-(1-((1-(4-((4-(2-(2,6-dioxopiperidin-3-yl)-1-oxoisoindolin-5-yl)piperidin-1-yl)methyl)piperidine-1-carbonyl)piperidin-4-yl)methyl)piperidin-4-yl)-2-(4-phenoxyphenyl)-4,5,6,7-tetrahydropyrazolo[1,5-a]pyrimidine-3-carboxamide] | 1000 to 10000 | > 75 | 10 to 50 | 1000 to 10000 |  |  |  |
| Nc1ncnc2c1c(-c1ccc(Oc3ccccc3)cc1)nn2C1CCN(C2CCN(C(=O)N3CCC(CCCN4CCC(c5ccc6c(c5)CN(C5CCC(=O)NC5=O)C6=O)CC4)CC3)CC2)CC1 (stereo not drawn) [Compound 268, 3-(5-(1-(3-(1-(4-(4-amino-3-(4-phenoxyphenyl)-1H-pyrazolo[3,4-d]pyrimidin-1-yl)-[1,4′-bipiperidine]-1′-carbonyl)piperidin-4-yl)propyl)piperidin-4-yl)-1-oxoisoindolin-2-yl)piperidine-2,6-dione] | 1000 to 10000 | > 90 | 10 to 50 | < 1000 |  |  |  |
| Nc1ncnc2c1c(-c1ccc(Oc3ccccc3)cc1)nn2C1CCN(CC2CCN(CCC3CCN(c4ccc5c(c4)C(=O)N(C4CCC(=O)NC4=O)C5=O)CC3)CC2)CC1 (stereo not drawn) [Compound 201, 5-(4-(2-(4-((4-(4-amino-3-(4-phenoxyphenyl)-1H-pyrazolo[3,4-d]pyrimidin-1-yl)piperidin-1-yl)methyl)piperidin-1-yl)ethyl)piperidin-1-yl)-2-(2,6-dioxopiperidin-3-yl)isoindoline-1,3-dione] | 1000 to 10000 | > 90 | 10 to 50 | 1000 to 10000 |  |  |  |
| Nc1ncnc2c1c(-c1ccc(Oc3ccccc3)cc1)nn2C1CCN(C2CCN(CCCN3CCC(c4ccc(NC5CCC(=O)NC5=O)cc4)CC3)CC2)CC1 (stereo not drawn) [Compound 580, 3-((4-(1-(3-(4-(4-amino-3-(4-phenoxyphenyl)-1H-pyrazolo[3,4-d]pyrimidin-1-yl)-[1,4′-bipiperidin]-1′-yl)propyl)piperidin-4-yl)phenyl)amino)piperidine-2,6-dione] | < 1000 |  |  | < 1000 |  | < 10 | > 90 |
| NC(=O)c1c(-c2ccc(Oc3ccccc3)cc2)nn2c1NCCC2C1CCN(C(=O)N2CCN(CCC3CCN(c4ccc5c(c4)C(=O)N(C4CCC(=O)NC4=O)C5=O)CC3)CC2)CC1 (stereo not drawn) [Compound 283, 7-(1-(4-(2-(1-(2-(2,6-dioxopiperidin-3-yl)-1,3-dioxoisoindolin-5-yl)piperidin-4-yl)ethyl)piperazine-1-carbonyl)piperidin-4-yl)-2-(4-phenoxyphenyl)-4,5,6,7-tetrahydropyrazolo[1,5-a]pyrimidine-3-carboxamide] | > 10000 | > 75 | 10 to 50 | 1000 to 10000 |  |  |  |
| Nc1ncnc2c1c(-c1ccc(Oc3ccccc3)cc1)nn2[C@@H]1CCCN(CC2CCN(C(=O)NC3CCC(=O)NC3=O)CC2)C1 (stereo partly drawn) [Compound 518, 4-(((R)-3-(4-amino-3-(4-phenoxyphenyl)-1H-pyrazolo[3,4-d]pyrimidin-1-yl)piperidin-1-yl)methyl)-N-(2,6-dioxopiperidin-3-yl)piperidine-1-carboxamide] | 1000 to 10000 |  |  | 1000 to 10000 |  | > 50 | > 75 |
| Nc1ncnc2c1c(-c1ccc(Oc3ccccc3)cc1)nn2C1CCN(C2CCN(C(=O)N3CCC(CCCN4CCC(c5ccc6c(c5)C(=O)N(C5CCC(=O)NC5=O)C6=O)CC4)CC3)CC2)CC1 (stereo not drawn) [Compound 267, 5-(1-(3-(1-(4-(4-amino-3-(4-phenoxyphenyl)-1H-pyrazolo[3,4-d]pyrimidin-1-yl)-[1,4′-bipiperidine]-1′-carbonyl)piperidin-4-yl)propyl)piperidin-4-yl)-2-(2,6-dioxopiperidin-3-yl)isoindoline-1,3-dione] | 1000 to 10000 | > 90 | 10 to 50 | 1000 to 10000 |  |  |  |
| Nc1ncnc2c1c(-c1ccc(Oc3ccccc3)cc1)nn2C1CCN(C(=O)N2CC(N3CCN(c4ccc5c(c4)C(=O)N([C@H]4CCC(=O)NC4=O)C5=O)CC3)C2)CC1 [Compound 483, (S)-5-(4-(1-(4-(4-amino-3-(4-phenoxyphenyl)-1H-pyrazolo[3,4-b]pyrimidin-1-yl)piperidine-1-carbonyl)azetidin-3-yl)piperazin-1-yl)-2-(2,6-dioxopiperidin-3-yl)isoindoline-1,3-dione] | 1000 to 10000 |  |  | < 1000 |  | < 10 | > 90 |
| Nc1ncnc2c1c(-c1ccc(Oc3ccccc3)cc1)nn2[C@@H]1CCCN(C(=O)NCCN2CCN(c3ccc4c(c3)C(=O)N(C3CCC(=O)NC3=O)C4=O)CC2)C1 (stereo partly drawn) [Compound 524, (3R)-3-(4-amino-3-(4-phenoxyphenyl)-1H-pyrazolo[3,4-d]pyrimidin-1-yl)-N-(2-(4-(2-(2,6-dioxopiperidin-3-yl)-1,3-dioxoisoindolin-5-yl)piperazin-1-yl)ethyl)piperidine-1-carboxamide] | 1000 to 10000 |  |  | < 1000 |  | < 10 | > 90 |
| Nc1ncnc2c1c(-c1ccc(Oc3ccccc3)cc1)nn2C1CCN(CCN2CCC(CN3CCC(c4ccc5c(c4)oc(=O)n5C4CCC(=O)NC4=O)CC3)C2)CC1 (stereo not drawn) [Compound 542, 3-(6-(1-((1-(2-(4-(4-amino-3-(4-phenoxyphenyl)-1H-pyrazolo[3,4-d]pyrimidin-1-yl)piperidin-1-yl)ethyl)pyrrolidin-3-yl)methyl)piperidin-4-yl)-2-oxobenzo[d]oxazol-3(2H)-yl)piperidine-2,6-dione] | 1000 to 10000 |  |  | 1000 to 10000 |  | 10 to 50 | > 75 |
| Nc1ncnc2c1c(-c1ccc(Oc3ccccc3)cc1)nn2C1CCN(CC2CCN(CC3CCN(CC4CN(c5ccc6c(c5)CN(C5CCC(=O)NC5=O)C6=O)C4)CC3)CC2)CC1 (stereo not drawn) [Compound 432, 3-(5-(3-((4-((4-((4-(4-amino-3-(4-phenoxyphenyl)-1H-pyrazolo[3,4-d]pyrimidin-1-yl)piperidin-1-yl)methyl)piperidin-1-yl)methyl)piperidin-1-yl)methyl)azetidin-1-yl)-1-oxoisindolin-2-yl)piperidine-2,6-dione] | < 1000 |  |  | < 1000 |  | 10 to 50 | > 90 |
| NC(=O)c1c(-c2ccc(Oc3ccccc3)cc2)nn2c1NCCC2C1CCN(C2CCN(CCN3CCN(c4ccc5c(c4)CN(C4CCC(=O)NC4=O)C5=O)CC3)CC2)CC1 (stereo not drawn) [Compound 308, 7-(1′-(2-(4-(2-(2,6-dioxopiperidin-3-yl)-1-oxoisoindolin-5-yl)piperazin-1-yl)ethyl)-[1,4′-bipiperidin]-4-yl)-2-(4-phenoxyphenyl)-4,5,6,7-tetrahydropyrazolo[1,5-a]pyrimidine-3-carboxamide] | > 10000 | > 75 | 10 to 50 | 1000 to 10000 |  |  |  |
| NC(=O)c1c(-c2ccc(Oc3ccccc3)cc2)nn2c1NCCC2C1CCN(C(=O)N2CCC(CN3CCC(c4ccc5c(c4)CN(C4CCC(=O)NC4=O)C5=O)CC3)CC2)CC1 (stereo not drawn) [Compound 280, 7-(1-(4-((4-(2-(2,6-dioxopiperidin-3-yl)-1-oxoisoindolin-5-yl)piperidin-1-yl)methyl)piperidine-1-carbonyl)piperidin-4-yl)-2-(4-phenoxyphenyl)-4,5,6,7-tetrahydropyrazolo[1,5-a]pyrimidine-3-carboxamide] | 1000 to 10000 | > 90 | < 10 | 1000 to 10000 |  |  |  |
| NC(=O)c1c(-c2ccc(Oc3ccccc3)cc2)nn2c1NCCC2C1CCN(C(=O)N2CCC(CCN3CCC(c4ccc5c(c4)C(=O)N(C4CCC(=O)NC4=O)C5=O)CC3)CC2)CC1 (stereo not drawn) [Compound 285, 7-(1-(4-(2-(4-(2-(2,6-dioxopiperidin-3-yl)-1,3-dioxoisoindolin-5-yl)piperidin-1-yl)ethyl)piperidine-1-carbonyl)piperidin-4-yl)-2-(4-phenoxyphenyl)-4,5,6,7-tetrahydropyrazolo[1,5-a]pyrimidine-3-carboxamide] | 1000 to 10000 | > 75 | > 50 | 1000 to 10000 |  |  |  |
